Assay [1] has as its target Avi-tagged FL MALT-1 (Homo sapiens (Human), UniProt Q9UDY8). The assay can be described thus: MALT-1 Fluorogenic Peptide Cleavage Assay (MALT1 inhibition assay). The class given is biochemical. The following applies: Ac-LRSR-AMC peptide substrate, 30 min pre-incubation, 90 min reaction at room temperature. In a few lines: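 Full-length Avi-tagged human MALT-1 (40 nM working stock) pre-incubated 30 min at RT with compound in 25 mM HEPES pH 6.89, 660 mM sodium citrate, 1 mM TCEP, […], 0.05% CHAPS, 2% DMSO. Ac-LRSR-AMC added at Km (50 μM working stock) or 10×Km (280 μM working stock); 90 min at RT, AMC fluorescence (ex 342/em 441 nm), IC50 from % inhibition curves.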

The test system of assay [2] is NF-kB reporter in Jurkat cells. The assay can be described thus: NF-kB reporter assay in Jurkat cells stimulated with aCD3/aCD28/PMA. The following applies: Jurkat cells, 1 hr compound pre-incubation, aCD3/aCD28/PMA stimulation 4 hr, One-Glo readout, read-out: NF-kB Reporter Assay IC50. The class given is cell-based. In a few lines:
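Jurkat cells (25,000/well, serum-free RPMI) were pre-incubated 1 h at 37° C with serially diluted compound, then stimulated 4 h with aCD3/aCD28/PMA at final […]. NF-kB reporter activity was read by One-Glo luminescence; IC50 values reported.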

Results on 23 compounds are retold here after US20240150321A1, “PYRAZOLYLSULFONAMIDE COMPOUNDS AND THEIR USE IN THERAPY” (HOTSPOT THERAPEUTICS, INC., priority 2022, published 2024).

pIC50: −log10 of the molar value. Read-outs that look alike come from different tables or passages of the source.

Chain of Avi-tagged FL MALT-1 (Q9UDY8 whole entry): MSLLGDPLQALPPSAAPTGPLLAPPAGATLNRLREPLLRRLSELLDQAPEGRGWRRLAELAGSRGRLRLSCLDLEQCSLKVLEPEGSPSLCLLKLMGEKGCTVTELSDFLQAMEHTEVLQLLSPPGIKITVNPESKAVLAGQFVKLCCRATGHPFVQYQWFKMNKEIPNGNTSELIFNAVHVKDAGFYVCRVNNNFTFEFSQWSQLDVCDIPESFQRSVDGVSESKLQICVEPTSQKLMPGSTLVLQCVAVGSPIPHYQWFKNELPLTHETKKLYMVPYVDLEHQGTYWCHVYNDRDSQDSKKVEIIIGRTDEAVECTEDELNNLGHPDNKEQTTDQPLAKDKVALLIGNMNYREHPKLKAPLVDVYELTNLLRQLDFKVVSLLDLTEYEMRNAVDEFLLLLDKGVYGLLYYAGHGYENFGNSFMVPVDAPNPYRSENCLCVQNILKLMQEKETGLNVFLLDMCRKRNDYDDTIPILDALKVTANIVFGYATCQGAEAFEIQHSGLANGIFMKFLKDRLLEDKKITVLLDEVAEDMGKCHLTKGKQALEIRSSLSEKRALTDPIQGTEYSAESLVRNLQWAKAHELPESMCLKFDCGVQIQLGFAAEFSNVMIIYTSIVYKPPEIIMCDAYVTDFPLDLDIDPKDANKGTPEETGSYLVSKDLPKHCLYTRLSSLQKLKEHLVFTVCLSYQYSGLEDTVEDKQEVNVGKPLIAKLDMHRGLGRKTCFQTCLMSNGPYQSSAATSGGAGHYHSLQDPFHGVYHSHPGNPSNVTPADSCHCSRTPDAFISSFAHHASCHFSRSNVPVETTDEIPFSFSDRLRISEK

For `COc1ccc2[nH]nc(C)c2c1NS(=O)(=O)c1cnn(-c2ccnc(C(F)(F)F)c2)c1` [Compound I-79, N-(5-Methoxy-3-Methyl-1H-Indazol-4-yl)-1-(2-(Trifluoromethyl)Pyridin-4-yl)-1H-Pyrazole-4-Sulfonamide], the pIC50 in assay [1] was no less than 6.40; in assay [2] (Homo sapiens) it was greater than 6.40.
The corresponding values for `CCC(OC)c1ccnc(-n2cc(S(=O)(=O)Nc3cccc4cnn(C)c34)cn2)c1` (stereo not shown) [Compound I-297, 1-{4-[1-methoxypropyl]pyridin-2-yl}-N-(1-methylindazol-7-yl)pyrazole-4-sulfonamide] are less than 5.60 and greater than 6.40.
In the same order, the values of `Cn1ncc2cccc(NS(=O)(=O)c3cnn(-c4cc(N5CC(C)(C)NC5=O)ccn4)c3)c21` [Compound I-285, 1-(4-(4,4-Dimethyl-2-Oxoimidazolidin-1-yl)Pyridin-2-yl)-N-(1-Methyl-1H-Indazol-7-yl)-1H-Pyrazole-4-Sulfonamide] are less than 5.60 and 6.00 to 6.40.
In the same order, the values of `[2H]C([2H])([2H])n1ncc2cnc(OC)c(N(C)S(=O)(=O)c3cnn(-c4cc(C(F)(F)F)ccn4)c3)c21` [Compound I-354, N-(6-methoxy-1-(methyl-d3)-1H-pyrazolo[4,3-c]pyridin-7-yl)-N-methyl-1-(4-(trifluoromethyl)pyridin-2-yl)-1H-pyrazole-4-sulfonamide] are no less than 6.40 and greater than 6.40.
For the compound `COc1ncc2cnn(C)c2c1NS(=O)(=O)c1cnn(-c2cc(N3CCCC3)ccn2)c1` [Compound I-398, N-{6-methoxy-1-methylpyrazolo[4,3-c]pyridin-7-yl}-1-[4-(pyrrolidin-1-yl)pyridin-2-yl]pyrazole-4-sulfonamide], the pIC50 in assay [1] is 6.00 to 6.40; in assay [2] (Homo sapiens), greater than 6.40.
The corresponding values for `Cn1ncc2ccc(C3CC3)c(NS(=O)(=O)c3cnn(-c4cc(C(F)(F)F)ncn4)c3)c21` [Compound I-53, N-(6-Cyclopropyl-1-Methyl-1H-Indazol-7-yl)-1-(6-(Trifluoromethyl)Pyrimidin-4-yl)-1H-Pyrazole-4-Sulfonamide] are no less than 6.40 and greater than 6.40.
The corresponding values for `Cn1ncc2cccc(NS(=O)(=O)c3cnn([C@@H]4CCCN(CC(F)(F)F)C4)c3)c21` [Compound I-328] are less than 5.60 and 5.60 to 6.00.
The corresponding values for `C[C@@H]1COC(=O)N1c1ccnc(-n2cc(S(=O)(=O)Nc3cccc4cnn(C)c34)cn2)c1` [Compound I-302] are less than 5.60 and greater than 6.40.
With `COc1ccc2cnn(C)c2c1NS(=O)(=O)c1cnn(-c2cc(C(C)(C)C)ccn2)c1` [Compound I-115, 1-(4-(tert-butyl)pyridin-2-yl)-N-(6-methoxy-1-methyl-1H-indazol-7-yl)-1H-pyrazole-4-sulfonamide], the pIC50 is no less than 6.40 in assay [1] and greater than 6.40 in assay [2] (Homo sapiens).
The corresponding values for `Cn1ncc2cccc(NS(=O)(=O)c3cnn(-c4cc(C(C)(C)CO)ccn4)c3)c21` [Compound I-307, 1-(4-(1-hydroxy-2-methylpropan-2-yl)pyridin-2-yl)-N-(1-methyl-1H-indazol-7-yl)-1H-pyrazole-4-sulfonamide] are less than 5.60 and greater than 6.40.
As to `Cn1ncc2cccc(NS(=O)(=O)c3cnn(-c4cc(N5CC6CC(C6)C5)ccn4)c3)c21` [Compound I-389, 1-(4-(3-Azabicyclo[3.1.1]Heptan-3-yl)Pyridin-2-yl)-N-(1-Methyl-1H-Indazol-7-yl)-1H-Pyrazole-4-Sulfonamide], the pIC50 in assay [1] was less than 5.60; in assay [2] (Homo sapiens) it was greater than 6.40.
As for `Cn1ncc2cccc(NS(=O)(=O)c3cnn(-c4cc(C5(F)CC(F)C5)ccn4)c3)c21` (stereo not shown) [Compound I-366, 1-(4-(1,3-difluorocyclobutyl)pyridin-2-yl)-N-(1-methyl-1H-indazol-7-yl)-1H-pyrazole-4-sulfonamide], the pIC50 in assay [1] was less than 5.60; in assay [2], greater than 6.40.
With `[2H]C([2H])([2H])Oc1ccc2cnn(C)c2c1NS(=O)(=O)c1cnn(-c2cc(C3CC3)ccn2)c1` [Compound I-96, 1-(4-cyclopropylpyridin-2-yl)-N-(6-(methoxy-d3)-1-methyl-1H-indazol-7-yl)-1H-pyrazole-4-sulfonamide], the results for the pIC50 in assay [1] and in assay [2] (Homo sapiens) were no less than 6.40 and greater than 6.40, respectively.
In the same order, the values of `COc1ncc2cnn(C)c2c1NS(=O)(=O)c1cnn(-c2cc(N3CCCCC3)ccn2)c1` [Compound I-387, N-(6-methoxy-1-methyl-1H-pyrazolo[4,3-c]pyridin-7-yl)-1-(4-(piperidin-1-yl)pyridin-2-yl)-1H-pyrazole-4-sulfonamide] are less than 5.60 and greater than 6.40.
In the same order, the values of `Cn1ncc2cccc(NS(=O)(=O)c3cnn(-c4cc(N5CC(C)(C)C5)ccn4)c3)c21` [Compound I-367] are less than 5.60 and greater than 6.40.
The corresponding values for `Cn1nc(F)c2cccc(NS(=O)(=O)c3cnn(-c4cc(C(C)(F)F)ccn4)c3)c21` [Compound I-139, 1-(4-(1,1-Difluoroethyl)Pyridin-2-yl)-N-(3-FLUORO-1-Methyl-1H-Indazol-7-yl)-1H-Pyrazole-4-Sulfonamide] are less than 5.60 and greater than 6.40.
As for `CC(=O)N1CC(F)(c2ccnc(-n3cc(S(=O)(=O)Nc4cccc5cnn(C)c45)cn3)c2)C1` [Compound I-253, 1-(4-(1-acetyl-3-fluoroazetidin-3-yl)pyridin-2-yl)-N-(1-methyl-1H-indazol-7-yl)-1H-pyrazole-4-sulfonamide], the pIC50 in assay [1] is less than 5.60; in assay [2] (Homo sapiens), 6.00 to 6.40.
In the same order, the values of `Cn1ncc2cccc(NS(=O)(=O)c3cnn(-c4cc(C5(O)COC5)ccn4)c3)c21` [Compound I-101, 1-(4-(3-hydroxyoxetan-3-yl)pyridin-2-yl)-N-(1-methyl-1H-indazol-7-yl)-1H-pyrazole-4-sulfonamide] are less than 5.60 and greater than 6.40.
For `COc1ccc2cnn(C)c2c1NS(=O)(=O)c1cnn(-c2cc(C3(OC)CC(C)C3)ccn2)c1` (single isomer, unassigned) [Compound I-365, N-(6-methoxy-1-methyl-1H-indazol-7-yl)-1-(4-(1-methoxy-3-methylcyclobutyl)pyridin-2-yl)-1H-pyrazole-4-sulfonamide], the pIC50 was no less than 6.40 in assay [1] and greater than 6.40 in assay [2].
Consider `COC[C@@](C)(F)c1ccnc(-n2cc(S(=O)(=O)Nc3cccc4cnn(C)c34)cn2)c1` [Compound I-331, (S)-1-(4-(2-fluoro-1-methoxypropan-2-yl)pyridin-2-yl)-N-(1-methyl-1H-indazol-7-yl)-1H-pyrazole-4-sulfonamide], for which the pIC50 in assay [1] was less than 5.60; in assay [2] (Homo sapiens) it was greater than 6.40.
The corresponding values for `COc1ccc2cnn(C)c2c1NS(=O)(=O)c1cnn(-c2cc(N3CCC4(CC4)C3)ccn2)c1` [Compound I-433] are less than 5.60 and greater than 6.40.
The corresponding values for `COc1ccc2cnn(C)c2c1NS(=O)(=O)c1cnn(-c2cc(C3(O)CC(C)(C)C3)ccn2)c1` [Compound I-479] are less than 5.60 and greater than 6.40.
The corresponding values for `CC1CCN(c2ccnc(-n3cc(S(=O)(=O)Nc4cccc5cnn(C)c45)cn3)c2)CC1` [Compound I-390, N-(1-methylindazol-7-yl)-1-[4-(4-methylpiperidin-1-yl)pyridin-2-yl]pyrazole-4-sulfonamide] are less than 5.60 and greater than 6.40.
